Tests used:
[1] = system: dextran sodium sulfate (DSS)-induced ulcerative colitis model in the rat; assay: Rat model of DSS-induced ulcerative colitis, 7-day repetitive intrarectal administration (Example 1); format: in vivo, SD rats; details: 7 days; for Hb / Ht / RBC / WBC: hematological examination, i.r., DSS rat; for colon contraction: DSS rat (Figure 2)
Description: The therapeutic effect of YY-1 was investigated with the 7-day repetitive intrarectal administration using a dextran sodium sulfate (DSS)-induced ulcerative colitis model in the rat (Cancer Research, 61, 2424-2428, 2001). To generate the rat model of DSS-induced ulcerative colitis, a 3% aqueous DSS solution was ingested ad libitum by SD rats (male, age: 7 weeks) purchased from Charles River Laboratories Japan Inc., and animals presenting bloody stools were used as the rat model of DSS-induced ulcerative colitis.
The negative control group received 0.5% aqueous CMC-Na solution (vehicle) by intrarectal administration, while the positive control group received 100 mg/kg/day 5-aminosalicylic acid (5-ASA, purchased from Aldrich Chemical Company) dissolved in 0.5% aqueous CMC-Na solution by intrarectal administration. For YY-1, the compound was combined with 0.5% aqueous CMC-Na solution by means of a vortex mixing and sonication to form a suspension, and was administered intrarectally at 20 mg/kg/day (low dose group), 100 mg/kg/day (intermediate dose group), and 500 mg/kg/day (high dose group). Each group contained 8 SD rats, and a 1% aqueous DSS solution was ingested ad libitum during the test period.

[2] = system: dextran sodium sulfate (DSS)-induced ulcerative colitis model in the mouse; assay: Mouse model of DSS-induced ulcerative colitis, 7-day repetitive intrarectal administration, 9.0% DSS during test period (Example 3); format: in vivo, c57BL/6J mice; details: 500 mg/kg/day intrarectal, 7 days
Description: (§1) The therapeutic effect of YY-1 was investigated with the 7-day repetitive intrarectal administration using a dextran sodium sulfate (DSS)-induced ulcerative colitis model in the mouse. To generate the mouse model of DSS-induced ulcerative colitis, a 9.0% aqueous DSS solution was ingested ad libitum for 7 days by c57BL/6J (male, age: 8 weeks) purchased from CLEA Japan, Inc., and animals presenting body weight loss, bloody stool, and/or diarrhea were used as the mouse model of DSS-induced ulcerative colitis.
The negative control group received 0.5% aqueous CMC-Na solution by intrarectal administration. For YY-1, the compound was combined with 0.5% aqueous CMC-Na solution by means of an ultrasound mixer under ice cooling to prepare a suspension, and was administered intrarectally at 500 mg/kg/day. Each group contained 8 c57BL/6J mice, and a 9.0% aqueous DSS solution was ingested ad libitum during the test period (Figure 7).

[3] = system: dextran sodium sulfate (DSS)-induced ulcerative colitis model in the mouse; assay: Mouse model of DSS-induced ulcerative colitis, 7-day repetitive intrarectal administration, 5.0% DSS during test period (Example 2); format: in vivo, c57BL/6J mice; details: 7 days; for body weight gain: P < 0.05 (Figure 4); for symptom alleviation: P < 0.05 (Figure 5); for colon contraction: P < 0.05 (Figure 6)
Description: as §1
The negative control group received 0.5% aqueous CMC-Na solution by intrarectal administration, while the positive control group received 100 mg/kg/day 5-aminosalicylic acid (5-ASA, purchased from Aldrich Chemical Company) dissolved in 0.5% aqueous CMC-Na solution by intrarectal administration. For YY-1, the compound was combined with 0.5% aqueous CMC-Na solution by means of an ultrasound mixer under ice cooling to form a suspension, and was administered intrarectally at 100 mg/kg/day or 500 mg/kg/day. Each group contained 8 c57BL/6J mice, and a 5.0% aqueous DSS solution was ingested ad libitum during the test period (Figure 3).

Nc1ccc(O)c(C(=O)O)c1 [5-ASA, 5-aminosalicylic acid, reference compound]
Hb ([1]; 100 mg/kg/day): 13.3 ± 0.4 g/dL | Ht ([1]; 100 mg/kg/day): 41.7 ± 1.1% | RBC ([1]; 100 mg/kg/day): 633 ± 27 x 10^4/µL | WBC ([1]; 100 mg/kg/day): 126 ± 20 x 10^2/µL

CC/C=C\C/C=C\C/C=C\C/C=C\C/C=C\C=C\C(O)CCC(=O)O (stereo not shown) [YY-1, (5E,7Z,10Z,13Z,16Z,19Z)-4-hydroxy-5,7,10,13,16,19-docosahexaenoic acid]
colon contraction ([1]; 100 mg/kg/day intrarectal): significant improvement | area of erosion in the mucous membrane of the colon ([1]; 500 mg/kg/day intrarectal, DSS rat (Figure 1)): significant reduction | colon contraction ([1]; 500 mg/kg/day intrarectal): significant improvement | Hb ([1]; 20 mg/kg/day): 11 ± 1.5 g/dL | Ht ([1]; 20 mg/kg/day): 35.5 ± 4.6% | RBC ([1]; 20 mg/kg/day): 519 ± 80 x 10^4/µL | WBC ([1]; 20 mg/kg/day): 136 ± 34 x 10^2/µL | Hb ([1]; 100 mg/kg/day): 12.2 ± 0.9 g/dL | Ht ([1]; 100 mg/kg/day): 41.5 ± 3.2% | RBC ([1]; 100 mg/kg/day): 605 ± 51 x 10^4/µL | WBC ([1]; 100 mg/kg/day): 120 ± 13 x 10^2/µL | Hb ([1]; 500 mg/kg/day): 13.8 ± 0.3 g/dL | Ht ([1]; 500 mg/kg/day): 45.7 ± 1.1% | RBC ([1]; 500 mg/kg/day): 670 ± 20 x 10^4/µL | WBC ([1]; 500 mg/kg/day): 138 ± 14 x 10^2/µL | colon contraction ([2]; P < 0.01 (Figure 10)): significant improvement | body weight gain ([2]; P < 0.05 (Figure 8)): significant improvement | symptom alleviation ([2]; P < 0.05 (Figure 9)): significant improvement | body weight gain ([3]; 100 mg/kg/day intrarectal): significant improvement | symptom alleviation ([3]; 100 mg/kg/day intrarectal): significant improvement | colon contraction ([3]; 100 mg/kg/day intrarectal): significant improvement | body weight gain ([3]; 500 mg/kg/day intrarectal): significant improvement | symptom alleviation ([3]; 500 mg/kg/day intrarectal): significant improvement | colon contraction ([3]; 500 mg/kg/day intrarectal): significant improvement
